Molecular target: T1, Angiotensin-converting enzymes from porcine kidneys (EC 3.4.15.1) (Sus scrofa, UniProt F1RRW5)
T1 construct: gene ACE; native enzyme from porcine kidney (Sigma), lyophilized
T1 sequence (F1RRW5 34-1309): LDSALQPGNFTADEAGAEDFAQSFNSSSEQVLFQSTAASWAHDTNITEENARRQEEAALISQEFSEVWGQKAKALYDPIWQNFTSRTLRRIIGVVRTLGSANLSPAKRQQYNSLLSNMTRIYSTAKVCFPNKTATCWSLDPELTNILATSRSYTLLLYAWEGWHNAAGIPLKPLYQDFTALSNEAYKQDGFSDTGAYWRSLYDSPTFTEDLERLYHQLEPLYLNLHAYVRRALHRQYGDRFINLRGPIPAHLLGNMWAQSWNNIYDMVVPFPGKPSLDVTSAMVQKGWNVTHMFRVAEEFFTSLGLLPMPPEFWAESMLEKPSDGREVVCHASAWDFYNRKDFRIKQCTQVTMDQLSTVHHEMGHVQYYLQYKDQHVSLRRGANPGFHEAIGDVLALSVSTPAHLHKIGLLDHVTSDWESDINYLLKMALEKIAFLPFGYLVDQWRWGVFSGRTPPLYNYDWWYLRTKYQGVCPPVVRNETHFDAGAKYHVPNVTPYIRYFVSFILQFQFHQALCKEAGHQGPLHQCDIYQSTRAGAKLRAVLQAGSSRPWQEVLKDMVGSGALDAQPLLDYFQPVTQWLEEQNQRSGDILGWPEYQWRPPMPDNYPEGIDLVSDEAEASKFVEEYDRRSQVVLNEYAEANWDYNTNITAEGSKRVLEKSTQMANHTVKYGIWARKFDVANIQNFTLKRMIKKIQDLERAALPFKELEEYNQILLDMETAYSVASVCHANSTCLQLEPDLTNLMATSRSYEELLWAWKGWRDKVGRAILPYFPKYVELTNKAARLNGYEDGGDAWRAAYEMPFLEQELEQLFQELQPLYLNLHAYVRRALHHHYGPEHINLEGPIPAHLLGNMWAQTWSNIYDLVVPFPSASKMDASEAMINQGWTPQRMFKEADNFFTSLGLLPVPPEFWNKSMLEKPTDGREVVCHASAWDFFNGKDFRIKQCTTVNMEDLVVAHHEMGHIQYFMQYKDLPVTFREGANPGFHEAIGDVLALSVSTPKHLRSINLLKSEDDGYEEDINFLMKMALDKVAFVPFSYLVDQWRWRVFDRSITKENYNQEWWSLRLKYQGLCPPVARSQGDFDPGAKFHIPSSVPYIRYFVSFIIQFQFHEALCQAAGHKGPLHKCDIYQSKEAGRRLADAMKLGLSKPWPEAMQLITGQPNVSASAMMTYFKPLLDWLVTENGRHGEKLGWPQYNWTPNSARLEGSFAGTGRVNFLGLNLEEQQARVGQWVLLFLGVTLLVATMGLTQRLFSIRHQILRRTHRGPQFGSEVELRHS
Experiment: microplate fluorometric assay, OPA detection of His-Leu
Type: biochemical
Settings: read-out: IC50 (μg mL^-1) (converted)

Q: How did the IC50 turn out when O=c1c(O)c(-c2ccc(O)c(O)c2)oc2cc(O)cc(O)c12 [quercetin] was run?
A: Its IC50 is 129 µM.
